{
  "source": "patent US7253293B2",
  "about": "“Enzymatic method to produce 7-dehydropregnenolone, vitamin D3-like compounds and derivatives thereof” (priority 2004, dated 2007)",
  "key": {"[1]": {"molecular_target": "T1, Human P450scc (Homo sapiens, UniProt P05108)", "T1 construct": "made in house; host or cells: Escherichia coli", "T1 sequence (P05108 40-521)": "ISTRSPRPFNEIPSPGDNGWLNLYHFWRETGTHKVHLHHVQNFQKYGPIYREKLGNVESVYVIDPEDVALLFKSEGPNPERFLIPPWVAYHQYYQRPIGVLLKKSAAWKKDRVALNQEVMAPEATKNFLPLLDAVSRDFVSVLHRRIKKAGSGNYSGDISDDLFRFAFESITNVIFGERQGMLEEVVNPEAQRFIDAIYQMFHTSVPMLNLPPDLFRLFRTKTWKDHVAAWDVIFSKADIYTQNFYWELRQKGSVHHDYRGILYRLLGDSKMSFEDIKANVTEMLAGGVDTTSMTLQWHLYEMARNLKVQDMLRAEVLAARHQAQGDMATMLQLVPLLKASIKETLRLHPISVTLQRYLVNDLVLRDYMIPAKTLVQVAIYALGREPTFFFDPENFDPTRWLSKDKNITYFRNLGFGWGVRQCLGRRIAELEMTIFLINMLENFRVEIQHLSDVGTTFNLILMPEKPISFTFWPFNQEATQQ", "T1 sequence (P10109 61-184 partner)": "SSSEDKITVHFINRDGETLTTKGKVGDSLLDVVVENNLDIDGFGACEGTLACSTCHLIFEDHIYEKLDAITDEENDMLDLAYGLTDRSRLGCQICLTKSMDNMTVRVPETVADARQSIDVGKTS", "experiment": "Side-chain cleavage kinetics by human cytochrome P450scc in phospholipid vesicles", "assay_type": "biochemical", "conditions": "for kcat: substrate and P450scc in dioleoylphosphatidylcholine vesicles containing cardiolipin, ±SE", "experimental": "(§1) Large-scale reactions (50 mL) to cleave the side chain of 7-DHC were performed with purified bovine P450scc and its electron-transfer system in a manner similar to that described for cholesterol (41). The incubation mixture comprised 510 μM phospholipids vesicles (dioleoylphosphatidylcholine plus 15 mol % cardiolipin) with a substrate to phospholipids molar ration of 0.2 50 μM NADPH, 2 mM glucose 6-phosphate, 2 U-mL^−1 glucose 6-phosphate dehydrogenase, 0.3 μM adrenodoxin reductase, 6.5 μM adrenodoxin, 1.0 μM cytochrome P450scc and buffer, pH 7.4 (41). After incubation at 37° C. for 3 h, the mixture was extracted three times with 50 mL methylene chloride and dried under nitrogen at 35° C. Products were purified by preparative TLC on silica gel G with three developments in hexane/ethyl acetate (3:1 v/v) and products eluted from the silica gel with chloroform/methanol (1:1, v/v). Samples were dried under nitrogen and shipped for analysis on dry ice. Small-scale reactions (0.25 mL) to determine the kinetics of 7-DHC and cholesterol metabolism were performed with either bovine or human cytochrome P450scc as described for cholesterol (41). The amount of 7-DHP produced from 7-DHC was measured by RIA [25] using purified 7-DHP as standard.\nTable 2 contains the kinetic parameters for side-cahin cleavage of 7-DHC and cholesterol by bovine and human cytochromes P450scc. Kinetic parameters were determined with substrates and P450scc incorporated into dioleoylphosphatidylcholine (PL) vesicles containing cardiolipin. Values for Kcat and Km are ±SE and are expressed as min^−1 and mol sterol-mol PL^−1, respectively. They were obtained from fitting hyperbolic curves to the kinetic data using […]."}, "[2]": {"molecular_target": "T2, Bovine P450scc (Bos taurus, UniProt P00189)", "T2 construct": "isolated from adrenals; from tissue; host or cells: bovine adrenals", "T2 sequence (P00189 40-520)": "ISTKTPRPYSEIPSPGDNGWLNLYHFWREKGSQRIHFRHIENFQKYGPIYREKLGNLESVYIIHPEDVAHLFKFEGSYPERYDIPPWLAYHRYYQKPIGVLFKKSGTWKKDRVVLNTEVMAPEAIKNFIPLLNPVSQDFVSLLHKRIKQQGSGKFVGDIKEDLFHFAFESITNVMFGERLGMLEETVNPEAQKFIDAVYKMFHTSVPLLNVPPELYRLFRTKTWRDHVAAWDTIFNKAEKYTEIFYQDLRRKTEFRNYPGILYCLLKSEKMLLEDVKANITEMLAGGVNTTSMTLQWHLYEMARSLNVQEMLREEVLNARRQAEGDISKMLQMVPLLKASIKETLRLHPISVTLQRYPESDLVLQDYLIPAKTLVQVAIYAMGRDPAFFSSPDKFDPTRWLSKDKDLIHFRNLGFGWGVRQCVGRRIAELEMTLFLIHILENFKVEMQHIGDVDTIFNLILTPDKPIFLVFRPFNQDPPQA", "T2 sequence (P00257 59-186 partner)": "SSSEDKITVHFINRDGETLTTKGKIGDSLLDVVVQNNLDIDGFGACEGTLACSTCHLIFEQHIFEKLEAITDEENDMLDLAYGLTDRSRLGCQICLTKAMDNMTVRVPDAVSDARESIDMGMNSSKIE", "experiment": "Side-chain cleavage kinetics by bovine cytochrome P450scc in phospholipid vesicles", "assay_type": "biochemical", "conditions": "for kcat: substrate and P450scc in dioleoylphosphatidylcholine vesicles containing cardiolipin, ±SE", "experimental": "as §1\nTable 2 contains the kinetic parameters for side-cahin cleavage of 7-DHC and cholesterol by bovine and human cytochromes P450scc. Kinetic parameters were determined with substrates and P450scc incorporated into dioleoylphosphatidylcholine (PL) vesicles containing cardiolipin. Values for Kcat and Km are ±SE and are expressed as min^−1 and mol sterol-mol PL^−1, respectively. They were obtained from fitting hyperbolic curves to the kinetic data using KALEIDAGRAPH."}, "[3]": {"molecular_target": "T2, Bovine P450scc", "conditions": "2-hydroxypropyl-β-cyclodextrin; cited from earlier work"}, "[4]": {"test_system": "MLN64 and StAR", "conditions": "reconstituted in vitro system; compared with cholesterol; cited from earlier work"}, "[5]": {"test_system": "mitochondria from skin cells", "experiment": "Side-chain cleavage of radiolabelled cholesterol by mitochondria isolated from skin cells", "assay_type": "biochemical", "conditions": "for conversion relative to that reported for placental mitochondria: cutaneous mitochondria versus literature value for placental mitochondria", "experimental": "Mitochondrial fractions of the test tissue, i.e., skin, adrenals or placenta, were prepared by homogenizing the tissue in 5 vols ice-cold 0.25 M sucrose containing protease inhibitor cocktail (Sigma) (38). The homogenate was centrifuged at 600 g for 10 min at 4° C., and the resulting supernatant was centrifuged at 6000 g (placenta) or 9000 g (skin and adrenals) for 20 min at 4° C. to sediment the mitochondrial fraction. The pellet was resuspended in 0.25 M sucrose, and the mitochondrial fraction was again sedimented under the same conditions. The washed mitochondrial fraction was resuspended in 0.25 M sucrose and used for enzymatic reaction. For cultured skin cells, the above procedure was carried out after the cells had been swelled for 30 min in 20 mM HEPES, pH 7.4, before homogenization.\n[4-^14C]Cholesterol (58 mCi.mmol^−1; Amersham Bioscience) was purified before its use as a substrate by mitochondria, by TLC on silica gel G plates in hexane/acetone (7:3, v/v). Isolated mitochondria (0.5 mg protein) were then preincubated (15 min at 37° C.) with purified [4-^14C]cholesterol (1 μCi, 34 μM) in 0.5 mL medium comprising 0.25M sucrose, 50 mM HEPES, pH 7.4, 20 mM KCl, 5 mM MgSO4, 0.2 mM EDTA, 0.4 μM adrenodoxin reductase, 6 μM adrenodoxin, 5 μM N-62 StAR protein (gift from W. Miller, University of California, San Francisco, Calif., USA) and 8 μM cyanoketone. The reaction was started by adding NADPH (0.5 mM) and isocitrate (5 mM), and samples were incubated at 37° C. for 150 min. The reaction was stopped by the addition of 1 mL ice-cold methylene chloride, and the incubation mixture extracted twice more with 1 mL methylene chloride. The fractions were combined, dried under nitrogen, and subjected to TLC on silica gel G plates and developed with hexane/acetone (7:3, v/v). Radiolabelled products were visualized using a phosphoimager, the steroids eluted from the plate with chloroform/methanol (1:1, v/v), and the associated radioactivity measured by scintillation counting."}, "[6]": {"conditions": "cutaneous mitochondria, 34 μM substrate, 150 min at 37° C."}},
  "data": [
    {"smiles": "CC(C)CCC[C@@H](C)[C@H]1CC[C@H]2[C@@H]3CC=C4C[C@@H](O)CC[C@]4(C)[C@H]3CC[C@]12C", "note": "[Cholesterol, cholesterol]", "values": [
      {"measurement": "kcat", "setting": "[1]", "value": "0.317 ± 0.0067", "unit": "s⁻¹"},
      {"measurement": "kcat", "setting": "[2]", "value": "0.655 ± 0.0283", "unit": "s⁻¹"}
    ]},
    {"smiles": "CC(C)CCC[C@@H](C)[C@H]1CC[C@H]2C3=CC=C4C[C@@H](O)CC[C@]4(C)[C@H]3CC[C@]12C", "note": "[7-DHC, cholesta-5,7-dien-3β-ol]", "values": [
      {"measurement": "kcat relative to that for cholesterol", "setting": "[1]", "value": 70, "unit": "%"},
      {"measurement": "kcat", "setting": "[1]", "value": "0.222 ± 0.0067", "unit": "s⁻¹"},
      {"measurement": "Vmax compared with cholesterol", "setting": "[3]", "value": "same Vmax for 7-DHC and cholesterol"},
      {"measurement": "kcat", "setting": "[2]", "value": "0.407 ± 0.0183", "unit": "s⁻¹"},
      {"measurement": "kcat relative to that for cholesterol", "setting": "[2]; substrate dissolved in membrane of phospholipid vesicles", "value": 62, "unit": "%"},
      {"measurement": "efficiency of transport from donor to acceptor vesicles", "setting": "[4]", "value": "efficiency similar to that for cholesterol"}
    ]},
    {"smiles": "CC(C)CCC[C@@H](C)[C@H]1CC[C@H]2[C@@H]3CC=C4[14CH2][C@@H](O)CC[C@]4(C)[C@H]3CC[C@]12C", "note": "[[4-^14C]cholesterol, [4-^14C]Cholesterol]", "values": [
      {"measurement": "conversion relative to that reported for placental mitochondria", "setting": "[5]", "value": "~1", "unit": "%"},
      {"measurement": "conversion relative to that reported for placental mitochondria", "setting": "[5]; listed as [4-^14C]-cholesterol", "value": "approximately 1%"},
      {"measurement": "rate of conversion into pregnenolone", "setting": "[5]; [6]", "value": 0.14, "unit": "%"},
      {"measurement": "rate of conversion into progesterone", "setting": "[5]; [6]", "value": 0.04, "unit": "%"}
    ]}
  ]
}
